Laboratory results published in patent US6783947B1, “Protecting groups for biological labeling” (Dade Behring Marburg GmbH, priority 1999, dated 2004).
Structures can show the parent of a compound that is named as a salt.

Assays:
[1] = Storage stability of derivatizing agent, monitored by total LOCI assay signal modulation (three-reagent protocol); assay type: physicochemical
Protocol: A 50 μL mixture of hcy-ABA-sensitizer beads (0.1 mg/ml) and 2 mM TCEP is added to 5 μL hcy serum calibrator in a reaction cuvette, followed by the addition of 50 μL assay buffer. The mixture is incubated for 417 sec. Then, 50 μL of 5 mM BABA is added and followed by 45 μL assay buffer. Following incubation for 157 sec., 50 μL of Ab-coated acceptor beads (at 0.25-0.5 mg/ml) is added. After incubation for 154 sec., the sample is read.
In Table 2, the three-reagent protocol is used as described previously, with 5 mM BABA stored in a different pH buffer as R-2 (reagent 2).
The activity of BABA is monitored by the amount of total assay signal modulation obtained by LOCI using the three-reagent protocol.
The three-reagent assay protocol using CABA-phosphate as derivatizing agent is also assessed. Similar results are obtained with hcy serum calibrators as in the three-reagent protocol using BABA (not shown). The stability of CABA is also studied. The activity of CABA-phosphate as derivatizing agent is monitored by the amount of total assay signal modulation obtained by LOCI using the three-reagent protocol. In Table 3, the three-reagent assay protocol is used with CABA-phosphate stored at two temperatures in pH 9.0 as R-2; mixed hcy-sensitizer beads and TCEP as R-1; mixed Ab-acceptor beads and alkaline phosphatase as R-3.

[2] = biological target: T1, alkaline phosphatase (Sigma, human placenta) (Homo sapiens, UniProt P05187); test: Deprotection of phosphate protecting group by alkaline phosphatase (TLC, NMR); assay type: biochemical; conditions: mixture of BABA-phosphate and CABA-phosphate, 5 mg in 1 mL pH 8-9 NaOD/D2O, 1 mg (15 units) enzyme, 15 minutes, room temperature
T1 construct: alkaline phosphatase (Sigma, human placenta); purchased Sigma; host or cells: human placenta (tissue-derived)
Protocol: A mixture of BABA-phosphate and CABA-phosphate (resulting from preparation of BABA-phosphate), 5 mg in 1 mL pH 8-9 NaOD/D2O is treated with 1 mg (15 units) of alkaline phosphatase (Sigma, human placenta) for 15 minutes at room temperature.
Reaction of the crude product of the reaction with alkaline phosphatase, for about ten (10) minutes, with cysteine, results in the disappearance of the first product, deprotected alkylating reagent, and appearance of a more polar product. The latter is assumed to be an adduct of the alkylating reagent and cysteine.

Solubility = assay type: physicochemical; conditions: over a wide pH range
[3] = Stability of alkylating reagent in the presence of reducing agent TCEP (TLC); assay type: physicochemical; conditions: 5 mM each in phosphate buffer pH 7, sixteen (16) hours, room temperature

T1 sequence (P05187 23-506): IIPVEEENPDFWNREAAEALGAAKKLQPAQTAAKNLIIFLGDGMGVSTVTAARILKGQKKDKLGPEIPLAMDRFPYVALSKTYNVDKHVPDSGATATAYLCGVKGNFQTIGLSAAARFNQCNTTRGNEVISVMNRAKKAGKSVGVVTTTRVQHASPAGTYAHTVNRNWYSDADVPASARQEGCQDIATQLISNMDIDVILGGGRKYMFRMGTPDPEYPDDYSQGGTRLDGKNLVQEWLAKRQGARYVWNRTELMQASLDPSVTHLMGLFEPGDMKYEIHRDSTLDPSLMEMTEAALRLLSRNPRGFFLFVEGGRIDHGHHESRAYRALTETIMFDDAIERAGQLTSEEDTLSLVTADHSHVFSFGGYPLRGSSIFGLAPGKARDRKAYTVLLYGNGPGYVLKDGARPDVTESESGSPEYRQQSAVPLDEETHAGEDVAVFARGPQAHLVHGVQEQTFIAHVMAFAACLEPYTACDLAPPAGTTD

| Structure (SMILES) | stability of BABA in solution ([1]; even at the optimum condition, pH 6.0) | % Modulation (0 to 60 μM) ([1]; 5 mM in 50 mM borate buffer pH 9.0, stored @4° C., 1 wk) [%] | % Modulation (0 to 60 μM) ([1]; 5 mM in 50 mM borate buffer pH 9.0, stored @4° C., 2 wks) [%] | % Modulation (0 to 60 μM) ([1]; 5 mM in 50 mM borate buffer pH 9.0, stored @4° C., 5 wks) [%] | % Modulation (0 to 60 μM) ([1]; 5 mM in 50 mM borate buffer pH 9.0, stored @4° C., 7 wks) [%] | % Modulation (0 to 60 μM) ([1]; 5 mM in 50 mM borate buffer pH 9.0, stored @4° C., 10 wks) [%] | % Modulation (0 to 60 μM) ([1]; 5 mM in 50 mM borate buffer pH 9.0, stored @4° C., 13 wks) [%] | % Modulation (0 to 60 μM) ([1]; 5 mM in 50 mM borate buffer pH 9.0, stored @4° C., o/n) [%] | % Modulation (0 to 60 μM) ([1]; 5 mM in 50 mM borate buffer pH 9.0, stored @37° C., 1 wk) [%] | % Modulation (0 to 60 μM) ([1]; 5 mM in 50 mM borate buffer pH 9.0, stored @37° C., 2 wks) [%] | % Modulation (0 to 60 μM) ([1]; 5 mM in 50 mM borate buffer pH 9.0, stored @37° C., 5 wks) [%] | % Modulation (0 to 60 μM) ([1]; 5 mM in 50 mM borate buffer pH 9.0, stored @37° C., 7 wks) [%] | % Modulation (0 to 60 μM) ([1]; 5 mM in 50 mM borate buffer pH 9.0, stored @37° C., 10 wks) [%] | % Modulation (0 to 60 μM) ([1]; 5 mM in 50 mM borate buffer pH 9.0, stored @37° C., 13 wks) [%] | % Modulation (0 to 60 μM) ([1]; 5 mM in 50 mM borate buffer pH 9.0, stored @37° C., o/n) [%] | shelf life compared with BABA ([1]; three-reagent protocol, Table 3) | removal of the phosphate group by alkaline phosphatase (TLC, NMR) [2] | solubility (Solubility) | reaction of the protected alkylating reagent with TCEP (TLC) [3] |
| --- | --- | --- | --- | --- | --- | --- | --- | --- | --- | --- | --- | --- | --- | --- | --- | --- | --- | --- | --- |
| O=C(O)c1ccc(C(=O)CBr)cc1 [BABA, bromoacetylbenzoic acid, reference compound] | limited stability | – | – | – | – | – | – | – | – | – | – | – | – | – | – | – | – | – | – |
| O=C(O)c1ccc(/C(=C/Cl)OP(=O)(O)O)cc1 [CABA-phosphate, 4-(chloroacetyl)benzoate enol-phosphate sodium salt] | – | 54 | 56 | 55 | 54 | 51 | 45 | 57 | 45 | 51 | 50 | 51 | 44 | 35 | 55 | much longer shelf life than BABA | removed | readily soluble | resistant to reaction with TCEP |
